Assay results: patent US20220289715A1, “PESTICIDALLY ACTIVE PYRAZINE-AMIDE COMPOUNDS” (priority 2019, published 2022)

Tests used:
[1] = test system: Diabrotica balteata (Corn Root Worm); test: Example B1: Diabrotica balteata, spray on maize sprouts; type: in vivo; conditions: 96 h, application rate of 200 ppm, L2 larvae, 4 days after infestation, read-out: control in at least one of the two categories (mortality or growth inhibition)
Method: Example B1: Diabrotica balteata (Corn Root Worm)
Maize sprouts placed onto an agar layer in 24-well microtiter plates were treated with aqueous test solutions prepared from 10,000 ppm DMSO stock solutions by spraying. After drying, the plates were infested with L2 larvae (6 to 10 per well). The samples were assessed for mortality and growth inhibition in comparison to untreated samples 4 days after infestation.
(§1) The following compounds gave an effect of at least 80% control in at least one of the two categories (mortality or growth inhibition) at an application rate of 200 ppm: […]

[2] = test system: Euschistus heros (Neotropical Brown Stink Bug); test: Example B2: Euschistus heros, spray on soybean leaves; type: in vivo; conditions: 120 h, application rate of 200 ppm, N2 nymphs, 5 days after infestation, read-out: control in at least one of the two categories (mortality or growth inhibition)
Method: Example B2: Euschistus heros (Neotropical Brown Stink Bug)
Soybean leaves on agar in 24-well microtiter plates were sprayed with aqueous test solutions prepared from 10,000 ppm DMSO stock solutions. After drying the leaves were infested with N2 nymphs. The samples were assessed for mortality and growth inhibition in comparison to untreated samples 5 days after infestation.
as §1

[3] = test system: Chilo suppressalis (Striped Rice Stemborer); test: Example B3: Chilo suppressalis, artificial diet; type: in vivo; conditions: 144 h, application rate of 200 ppm, L2 larvae, 6 days after infestation, read-out: control in at least one of the three categories (mortality, anti-feedant effect, or growth inhibition)
Method: Example B3: Chilo suppressalis (Striped Rice Stemborer)
24-well microtiter plates with artificial diet were treated with aqueous test solutions prepared from 10,000 ppm DMSO stock solutions by pipetting. After drying, the plates were infested with L2 larvae (6-8 per well). The samples were assessed for mortality, anti-feeding effect, and growth inhibition in comparison to untreated samples 6 days after infestation. Control of Chilo suppressalis by a test sample is given when at least one of the categories mortality, anti-feedant effect, and growth inhibition is higher than the untreated sample.

[4] = test system: Plutella xylostella (Diamond Back Moth); test: Example B4: Plutella xylostella, artificial diet, 24-well; type: in vivo; conditions: 192 h, application rate of 200 ppm, eggs, 8 days after infestation, read-out: control in at least one of the two categories (mortality or growth inhibition)
Method: Example B4: Plutella xylostella (Diamond Back Moth)
24-well microtiter plates with artificial diet were treated with aqueous test solutions prepared from 10,000 ppm DMSO stock solutions by pipetting. After drying, Plutella eggs were pipetted through a plastic stencil onto a gel blotting paper and the plate was closed with it. The samples were assessed for mortality and growth inhibition in comparison to untreated samples 8 days after infestation.
as §1

[5] = test system: Myzus persicae (Green Peach Aphid); test: Example B5: Myzus persicae, intrinsic activity; type: in vivo; conditions: 120 h, test rate of 12 ppm, 5 days after infestation
Text: Example B5: Myzus persicae (Green Peach Aphid). Intrinsic Activity
Test compounds prepared from 10,000 ppm DMSO stock solutions were applied by pipette into 24-well microtiter plates and mixed with sucrose solution. The plates were closed with a stretched Parafilm. A plastic stencil with 24 holes was placed onto the plate and infested pea seedlings were placed directly on the Parafilm. The infested plate was closed with a gel blotting paper and another plastic stencil and then turned upside down. The samples were assessed for mortality 5 days after infestation.

[6] = test system: Spodoptera littoralis (Egyptian Cotton Leaf Worm); test: Example B6: Spodoptera littoralis, spray on cotton leaf discs; type: in vivo; conditions: foliar, 72 h, application rate of 200 ppm, L1 larvae, 3 days after infestation, read-out: control in at least one of the three categories (mortality, anti-feedant effect, or growth inhibition)
Method: Example B6: Spodoptera littoralis (Egyptian Cotton Leaf Worm)
Cotton leaf discs were placed onto agar in 24-well microtiter plates and sprayed with aqueous test solutions prepared from 10,000 ppm DMSO stock solutions. After drying the leaf discs were infested with five L1 larvae. The samples were assessed for mortality, anti-feeding effect, and growth inhibition in comparison to untreated samples 3 days after infestation. Control of Spodoptera littoralis by a test sample is given when at least one of the categories mortality, anti-feedant effect, and growth inhibition is higher than the untreated sample.

[7] = test system: Plutella xylostella (Diamondback Moth); test: Example B9: Plutella xylostella, artificial diet, 96-well; type: in vivo; conditions: 216 h, application rate of 500 ppm, eggs/L1 larvae, 9 days after infestation
Method: Example B9: Plutella xylostella (Diamondback Moth)
96-well microtiter plates containing artificial diet were treated with aqueous test solutions, prepared from 10,000 ppm DMSO stock solutions, by a liquid handling robot. After drying, eggs (˜30 per well) were infested onto a netted lid which was suspended above the diet. The eggs hatch and L1 larvae move down to the diet. The samples were assessed for mortality 9 days after infestation.
The following compounds gave an effect of at least 80% mortality at an application rate of 500 ppm: […]

[8] = test system: Myzus persicae (Green Peach Aphid); test: Example B10: Myzus persicae, sucrose solution, 96-well; type: in vivo; conditions: 120 h, application rate of 50 ppm, 5 days after infestation
Text: Example B10: Myzus persicae (Green Peach Aphid)
Test compounds prepared from 10,000 ppm DMSO stock solutions were applied by a liquid handling robot into 96-well microtiter plates and mixed with a sucrose solution. Parafilm was stretched over the 96-well microtiter plate and a plastic stencil with 96 holes was placed onto the plate. Aphids were sieved into the wells directly onto the Parafilm. The infested plates were closed with a gel blotting card and a second plastic stencil and then turned upside down. The samples were assessed for mortality 5 days after infestation.

[9] = test system: Spodoptera littoralis (Egyptian Cotton Leaf Worm); test: Example B7: Spodoptera littoralis, uptake by lettuce roots from agar; type: in vivo; conditions: 144 h, test rate of 12.5 ppm, absorbed by lettuce roots, eggs, 6 days after infestation, read-out: control in at least one of the three categories (mortality, anti-feeding, or growth inhibition)
Text: Example B7: Spodoptera littoralis (Egyptian Cotton Leaf Worm)
Test compounds were applied by pipette from 10,000 ppm DMSO stock solutions into 24-well plates and mixed with agar. Lettuce seeds were placed onto the agar and the multi well plate was closed by another plate which contained also agar. After 7 days the compound was absorbed by the roots and the lettuce grew into the lid plate. The lettuce leaves were then cut off into the lid plate. Spodoptera eggs were pipetted through a plastic stencil onto a humid gel blotting paper and the lid plate was closed with it. The samples were assessed for mortality, anti-feedant effect and growth inhibition in comparison to untreated samples 6 days after infestation.
The following compounds gave an effect of at least 80% control in at least one of the three categories (mortality, anti-feeding, or growth inhibition) at a test rate of 12.5 ppm: […]

`CCc1cc(C(=O)NC(C)c2nccnc2-n2nccn2)cc(Cl)n1` (centres unmarked) [Compound P31, 2-chloro-6-ethyl-N-[1-[3-(triazol-2-yl)pyrazin-2-yl]ethyl]pyridine-4-carboxamide] showed a melting point of 126 to 129 °C.

In the case of `CC(NC(=O)c1cc(C(F)(F)F)cc(C2(C#N)CC2)c1)c1nccnc1-n1nccn1` (centres unmarked) [Compound P16, 3-(1-cyanocyclopropyl)-N-[1-[3-(triazol-2-yl)pyrazin-2-yl]ethyl]-5-(trifluoromethyl)benzamide], the percent control (mortality or growth inhibition) at 200 ppm [1] was at least 80%, the percent control (mortality or growth inhibition) at 200 ppm [2] was at least 80% and the percent control (mortality, anti-feedant effect or growth inhibition) at 200 ppm [3] was at least 80%. The percent control (mortality or growth inhibition) at 200 ppm [4] was at least 80%, the mortality at 12 ppm [5] was at least 80% and the percent control (mortality, anti-feedant effect or growth inhibition) at 200 ppm [6] was at least 80%. For the same molecule, the mortality at 500 ppm [7] was at least 80% and the mortality at 50 ppm [8] was at least 80%.

With `Cc1cnc(C(C)NC(=O)c2cc(C(F)(F)F)cc(C(F)(F)F)c2)c(-n2ccnn2)n1` (centres unmarked) [Compound P43, N-[1-[5-methyl-3-(triazol-1-yl)pyrazin-2-yl]ethyl]-3,5-bis(trifluoromethyl)benzamide] the melting point was 167 to 171 °C.

`CC(NC(=O)c1cc(OC(F)(F)F)cc(C(F)(F)F)c1)c1nccnc1-n1nccn1` (centres unmarked) [Compound P5, N-[1-[3-(triazol-2-yl)pyrazin-2-yl]ethyl]-3-(trifluoromethoxy)-5-(tifluoromethyl)benzamide] gave a percent control (mortality or growth inhibition) at 200 ppm [1] of at least 80%, a percent control (mortality, anti-feedant effect or growth inhibition) at 200 ppm [3] of at least 80% and a percent control (mortality or growth inhibition) at 200 ppm [4] of at least 80%. For the same molecule, the percent control (mortality, anti-feedant effect or growth inhibition) at 200 ppm [6] was at least 80%, the percent control (mortality, anti-feeding or growth inhibition) at 12.5 ppm [9] was at least 80% and the mortality at 500 ppm [7] was at least 80%.

`CC(NC(=O)c1cc(C(F)(F)F)cc(C(F)(F)F)c1)c1nccnc1-n1nccn1` (centres unmarked) [Compound P49, N-[1-[3-(triazol-2-yl)pyrazin-2-yl]ethyl]-3,5-bis(trifluoromethyl)benzamide] showed a percent control (mortality or growth inhibition) at 200 ppm [1] of at least 80%, a percent control (mortality or growth inhibition) at 200 ppm [2] of at least 80% and a percent control (mortality, anti-feedant effect or growth inhibition) at 200 ppm [3] of at least 80%. It also gave a percent control (mortality or growth inhibition) at 200 ppm [4] of at least 80%, a percent control (mortality, anti-feedant effect or growth inhibition) at 200 ppm [6] of at least 80% and a percent control (mortality, anti-feeding or growth inhibition) at 12.5 ppm [9] of at least 80%.

Work on `CCOc1cc(C(=O)NC(C)c2nccnc2-n2nccn2)cc(Cl)n1` (centres unmarked) [Compound P21, 2-chloro-6-ethoxy-N-[1-[3-(triazol-2-yl)pyrazin-2-yl]ethyl]pyridine-4-carboxamide] yielded a melting point of 129 to 130 °C.

With `CC(NC(=O)c1cc(Br)cc(C(F)(F)F)c1)c1nccnc1-n1nccn1` (centres unmarked) [Compound P2, 3-bromo-N-[1-[3-(triazol-2-yl)pyrazin-2-yl]ethyl]-5-(trifluoromethyl)benzamide] the percent control (mortality or growth inhibition) at 200 ppm [1] was at least 80%, the percent control (mortality or growth inhibition) at 200 ppm [2] was at least 80% and the percent control (mortality, anti-feedant effect or growth inhibition) at 200 ppm [3] was at least 80%. It also gave a percent control (mortality or growth inhibition) at 200 ppm [4] of at least 80%, a percent control (mortality, anti-feedant effect or growth inhibition) at 200 ppm [6] of at least 80% and a percent control (mortality, anti-feeding or growth inhibition) at 12.5 ppm [9] of at least 80%. For the same molecule, the mortality at 500 ppm [7] was at least 80% and the mortality at 50 ppm [8] was at least 80%.

Molecule `CC(NC(=O)c1cc(Cl)nc(Cl)c1)c1nccnc1-n1nccn1` (centres unmarked) [Compound P29, 2,6-dichloro-N-[1-[3-(triazol-2-yl)pyrazin-2-yl]ethyl]pyridine-4-carboxamide] has a percent control (mortality or growth inhibition) at 200 ppm [1] of at least 80%, a percent control (mortality, anti-feedant effect or growth inhibition) at 200 ppm [3] of at least 80% and a percent control (mortality or growth inhibition) at 200 ppm [4] of at least 80%. For the same molecule, the percent control (mortality, anti-feedant effect or growth inhibition) at 200 ppm [6] was at least 80%, the percent control (mortality, anti-feeding or growth inhibition) at 12.5 ppm [9] was at least 80% and the mortality at 500 ppm [7] was at least 80%. The mortality at 50 ppm [8] was at least 80%.

For `CC(NC(=O)c1cc(Cl)cc(C(F)(F)F)c1)c1nccnc1-n1nccn1` (centres unmarked) [Compound P4, 3-chloro-N-[1-[3-(triazol-2-yl)pyrazin-2-yl]ethyl]-5-(trifluoromethyl)benzamide], the percent control (mortality or growth inhibition) at 200 ppm [1] was at least 80%, the percent control (mortality or growth inhibition) at 200 ppm [2] was at least 80% and the percent control (mortality, anti-feedant effect or growth inhibition) at 200 ppm [3] was at least 80%. The percent control (mortality or growth inhibition) at 200 ppm [4] was at least 80%, the percent control (mortality, anti-feedant effect or growth inhibition) at 200 ppm [6] was at least 80% and the percent control (mortality, anti-feeding or growth inhibition) at 12.5 ppm [9] was at least 80%. It also gave a mortality at 500 ppm [7] of at least 80% and a mortality at 50 ppm [8] of at least 80%.

With `CCCc1cc(C(=O)NC(C)c2nccnc2-n2nccn2)cc(Cl)n1` (centres unmarked) [Compound P34, 2-chloro-6-propyl-N-[1-[3-(triazol-2-yl)pyrazin-2-yl]ethyl]pyridine-4-carboxamide] the melting point was 142 to 145 °C.

Work on `CC(NC(=O)c1cc(OC(F)F)cc(C(F)(F)F)c1)c1nccnc1-n1nccn1` (centres unmarked) [Compound P10, 3-(difluoromethoxy)-N-[1-[3-(triazol-2-yl)pyrazin-2-yl]ethyl]-5-(trifluoromethyl)benzamide] yielded a percent control (mortality or growth inhibition) at 200 ppm [1] of at least 80%, a percent control (mortality, anti-feedant effect or growth inhibition) at 200 ppm [3] of at least 80% and a percent control (mortality or growth inhibition) at 200 ppm [4] of at least 80%. The percent control (mortality, anti-feedant effect or growth inhibition) at 200 ppm [6] was at least 80%, the percent control (mortality, anti-feeding or growth inhibition) at 12.5 ppm [9] was at least 80% and the mortality at 500 ppm [7] was at least 80%. The mortality at 50 ppm [8] was at least 80%.

`CC(NC(=O)c1cc(C(F)(F)F)cc(S(=O)(=O)C2CC2)c1)c1nccnc1-n1nccn1` (centres unmarked) [Compound P40, 3-cyclopropylsulfonyl-N-[1-[3-(triazol-2-yl)pyrazin-2-yl]ethyl]-5-(trifluoromethyl)benzamide] showed a percent control (mortality, anti-feedant effect or growth inhibition) at 200 ppm [3] of at least 80%, a percent control (mortality or growth inhibition) at 200 ppm [4] of at least 80% and a mortality at 12 ppm [5] of at least 80%. The percent control (mortality, anti-feedant effect or growth inhibition) at 200 ppm [6] was at least 80%, the mortality at 500 ppm [7] was at least 80% and the mortality at 50 ppm [8] was at least 80%.

With `COc1cc(C)cc(C(=O)NC(C)c2nccnc2-n2nccn2)c1` (centres unmarked) [Compound P27, 3-methoxy-5-methyl-N-[1-[3-(triazol-2-yl)pyrazin-2-yl]ethyl]benzamide] the melting point was 128 to 129 °C.

In the case of `Cc1cc(F)cc(C(=O)NC(C)c2nccnc2-n2nccn2)c1` (centres unmarked) [Compound P37, 3-fluoro-5-methyl-N-[1-[3-(triazol-2-yl)pyrazin-2-yl]ethyl]benzamide], the melting point was 154 to 155 °C.
